The values below come from the SangsterLogP compilation.

Each structure is given as a SMILES string.

The data set in a line: method code SF-AS, from DOI: 10.1016/0021-9673(94)85294-4.
Usually logP stands for the decadic logarithm of the partition coefficient of the neutral form, usually between octanol and water. Higher therefore signals a more lipophilic compound. The molecule `CCCNC(=O)c1cc2ccccc2o1` showed a logP of 2.65.

Take `CNC(=O)c1cc2ccccc2o1`: the logP was 1.85.

The molecule `CNC(=O)c1ccc[nH]1` yielded a logP of 0.42.

Molecule `CCCNC(=O)c1ccoc1` showed a logP of 1.2.

`CNC(=O)c1cccn1C` yielded a logP of 0.71.

`CCCNC(=O)c1cccn1C` had a logP of 1.63.

`CCCNC(=O)c1cc2ccccc2[nH]1` had a logP of 2.8.

`CNC(=O)c1c[nH]c2ccccc12` showed a logP of 1.25.

`CCNC(=O)c1cccn1C` registered a log partition coefficient (logP) of 1.09.

`NC(=O)c1cc2ccccc2[nH]1`: the logP was determined as 1.61.

Consider `CNC(=O)c1cc2ccccc2[nH]1`, for which the logP worked out at 1.9.

In turn, `CCCNC(=O)c1ccc[nH]1` came in with a logP of 1.25.

Molecule `CCOC(=O)c1cc2ccccc2o1` registered a logP of 3.05.

For the molecule `CCCNC(=O)c1ccccc1`, the logP stood at 1.72.

In the case of `COC(=O)c1cccn1C`, the logP was found to be 1.8.

In the case of `CCNC(=O)c1ccc[nH]1`, the logP was found to be 0.8.

`NC(=O)c1cc2ccccc2o1` returned a logP of 1.54.

As to `CCCOC(=O)c1ccoc1`, the logP stood at 2.36.

In turn, `Cn1cccc1C(N)=O` registered a logP of 0.45.

As to `NC(=O)c1ccc[nH]1`, the logP turned out to be 0.09.

With `CCNC(=O)c1c[nH]c2ccccc12`, the logP amounted to 1.62.

For `COC(=O)c1cc2ccccc2[nH]1`, the lipophilicity (logP) was determined as 2.78.

With `CCNC(=O)c1cc2ccccc2o1`, the logP was 2.22.

With `CCNC(=O)c1cc2ccccc2[nH]1`, the lipophilicity (logP) turned out to be 2.32.

`CCOC(=O)c1ccc[nH]1` had a lipophilicity (logP) of 1.73.

Take `CCNC(=O)c1ccccc1`: the logP turned out to be 1.28.

`CCCNC(=O)c1ccco1` returned a logP of 1.1.
